Test results from patent publication US20230074545A1, “TREATMENT OF CANCER WITH CDK12/13 INHIBITORS” (Kinnate Biopharma Inc., priority 2019, published 2023).

System: RNA polymerase II
Test: Inhibition of phosphorylation of RNA polymerase II in NCI-H82 cells
Assay type: cell-based
Conditions: Homo sapiens, 2 hours, phosphorylated/total RNA polymerase II
Protocol: CDK12 and CDK13 phosphorylate RNA polymerase II. The ability of compound 1 to inhibit phosphorylation of RNA polymerase II was analyzed in NCI-H82 cells. 200,000 cells were plated in each well of a 96 well MSD plate. Cells were treated with compound 1, THZ531 (a positive control), or E9 at concentrations between 4 μM to 126.4 pM (0.5 log serial dilutions) for 2 hours. THZ531 and E9 are further discussed in Gao et al, Cell Chemical Biology 2017. The amount of phosphorylated RNA polymerase II and the total amount of RNA polymerase II was analyzed using antibodies. The values were normalized by taking the ratio of the phosphorylated RNA polymerase II to the total RNA polymerase II. As depicted in FIG. 3A (THZ531), FIG. 3B (Compound 1), and Table 6, increasing the concentration of compound 1 results in a dose-specific increase in the inhibition of phosphorylation of RNA polymerase II.

SMILES: C=CC(=O)Nc1ccc(C(=O)N2CC[C@@H](Nc3ncc(Cl)c(OC)n3)C2)cc1 [Compound 1, (R)-N-(4-(3-((5-chloro-4-methoxypyrimidin-2-yl)amino)pyrrolidine-1-carbonyl)phenyl)acrylamide]
- IC50: 0.0125 µM
